From ChEMBL document CHEMBL5104095, “Proteolysis targeting chimera (PROTAC) in drug discovery paradigm: Recent progress and future challenges” (Eur J Med Chem, 2021)
pEC50, pIC50: −log10 of the molar value.

Experiments:
[1] = biological target: Alpha-1A adrenergic receptor (Homo sapiens, UniProt P35348); assay: PROTAC activity at CRBN/A1AR in human HEK293 cells assessed as induction of A1AR degradation incubated for 12 hrs by Western blot analysis; assay type: cell-based
[2] = biological target: Protein cereblon/Adenosine receptor A1 (Homo sapiens) (UniProt P30542+Q96SW2); assay: PROTAC activity at CRBN/A1AR in human HEK293 cells assessed as induction of A1AR degradation at 10 micromol/L incubated for 12 hrs by Western blot analysis relative to control; assay type: cell-based; conditions: dose 10.0 µmol/L
Protein cereblon/Adenosine receptor A1 (Homo sapiens), sequence (P30542 whole entry, looked up): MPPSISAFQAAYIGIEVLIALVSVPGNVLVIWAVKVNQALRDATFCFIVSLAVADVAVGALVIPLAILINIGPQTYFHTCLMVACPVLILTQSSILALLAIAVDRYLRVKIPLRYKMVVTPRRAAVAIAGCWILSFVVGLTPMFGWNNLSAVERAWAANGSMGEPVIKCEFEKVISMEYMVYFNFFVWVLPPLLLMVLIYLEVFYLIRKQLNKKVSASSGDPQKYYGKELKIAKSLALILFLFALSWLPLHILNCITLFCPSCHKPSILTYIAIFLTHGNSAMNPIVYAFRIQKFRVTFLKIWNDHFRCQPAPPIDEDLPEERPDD
Protein cereblon/Adenosine receptor A1 (Homo sapiens), sequence (Q96SW2 whole entry, looked up): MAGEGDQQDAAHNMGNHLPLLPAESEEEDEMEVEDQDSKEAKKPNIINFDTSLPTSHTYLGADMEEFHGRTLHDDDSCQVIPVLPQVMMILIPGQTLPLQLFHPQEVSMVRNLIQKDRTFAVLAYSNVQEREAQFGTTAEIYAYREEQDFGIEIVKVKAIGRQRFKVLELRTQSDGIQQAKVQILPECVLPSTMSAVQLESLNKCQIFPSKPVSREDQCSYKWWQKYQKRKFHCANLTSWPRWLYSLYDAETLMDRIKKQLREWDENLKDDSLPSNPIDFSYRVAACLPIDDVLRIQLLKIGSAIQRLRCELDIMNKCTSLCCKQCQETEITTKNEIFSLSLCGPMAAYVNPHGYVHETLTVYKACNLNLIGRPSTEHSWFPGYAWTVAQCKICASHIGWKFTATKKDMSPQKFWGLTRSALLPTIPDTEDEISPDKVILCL

[3] = tested on: PC-3; assay: Antiproliferative activity against human PC-3 cells assessed as inhibition of cell proliferation incubated for 48 hrs by CCK8 assay; assay type: functional, cell-based; conditions: PC-3, 48 h
[4] = biological target: T1, Protein cereblon/Tyrosine-protein kinase BTK (Homo sapiens, UniProt Q06187+Q96SW2); assay: PROTAC activity at CRBN/BTK in human MINO cells assessed as reduction in BTK level incubated for 24 hrs by Western blot analysis; assay type: cell-based
Target sequence in this assay (Q06187 whole entry): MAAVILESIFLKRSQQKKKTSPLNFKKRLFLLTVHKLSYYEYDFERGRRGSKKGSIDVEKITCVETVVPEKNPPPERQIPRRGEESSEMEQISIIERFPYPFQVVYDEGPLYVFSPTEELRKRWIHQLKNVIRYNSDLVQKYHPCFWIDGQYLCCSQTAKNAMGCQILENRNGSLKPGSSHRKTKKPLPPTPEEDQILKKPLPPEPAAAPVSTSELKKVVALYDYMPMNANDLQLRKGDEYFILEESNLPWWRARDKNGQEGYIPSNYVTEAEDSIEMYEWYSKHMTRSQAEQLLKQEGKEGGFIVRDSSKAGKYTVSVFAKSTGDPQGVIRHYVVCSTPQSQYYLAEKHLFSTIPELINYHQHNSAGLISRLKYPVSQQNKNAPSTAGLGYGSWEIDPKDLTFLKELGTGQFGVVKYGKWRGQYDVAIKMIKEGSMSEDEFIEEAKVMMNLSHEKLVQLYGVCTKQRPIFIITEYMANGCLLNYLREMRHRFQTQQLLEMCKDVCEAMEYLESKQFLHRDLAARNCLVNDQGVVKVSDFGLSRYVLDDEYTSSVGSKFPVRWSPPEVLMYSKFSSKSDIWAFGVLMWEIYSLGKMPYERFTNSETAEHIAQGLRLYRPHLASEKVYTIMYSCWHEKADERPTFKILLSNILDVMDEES
Target sequence in this assay (Q96SW2 whole entry): as the sequence (Q96SW2 whole entry, looked up) above

[5] = biological target: T1, Protein cereblon/Tyrosine-protein kinase BTK; assay: PROTAC activity at CRBN/BTK in human MINO cells assessed as reduction in BTK level incubated for 24 hrs by Western blot analysis relative to control; assay type: cell-based
Target sequence in this assay (Q06187 2-659 limits assumed): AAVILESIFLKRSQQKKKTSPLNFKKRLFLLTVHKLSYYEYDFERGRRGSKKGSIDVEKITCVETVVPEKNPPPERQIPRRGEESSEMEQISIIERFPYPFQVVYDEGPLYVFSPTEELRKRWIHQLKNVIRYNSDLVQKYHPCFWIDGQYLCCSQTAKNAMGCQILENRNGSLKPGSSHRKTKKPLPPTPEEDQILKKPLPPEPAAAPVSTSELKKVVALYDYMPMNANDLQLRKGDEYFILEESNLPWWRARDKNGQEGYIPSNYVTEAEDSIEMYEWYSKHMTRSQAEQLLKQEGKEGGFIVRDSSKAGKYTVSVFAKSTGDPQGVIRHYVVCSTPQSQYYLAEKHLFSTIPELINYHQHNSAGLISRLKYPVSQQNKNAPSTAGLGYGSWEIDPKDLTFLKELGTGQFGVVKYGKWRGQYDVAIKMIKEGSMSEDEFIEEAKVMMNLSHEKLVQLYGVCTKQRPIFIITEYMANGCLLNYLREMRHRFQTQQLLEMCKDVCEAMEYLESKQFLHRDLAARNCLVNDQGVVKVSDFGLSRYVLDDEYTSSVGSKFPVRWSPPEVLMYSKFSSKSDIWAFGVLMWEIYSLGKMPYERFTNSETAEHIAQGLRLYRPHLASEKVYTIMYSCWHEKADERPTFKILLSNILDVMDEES
Target sequence in this assay (Q96SW2 whole entry partner): as the sequence (Q96SW2 whole entry, looked up) above

[6] = biological target: Protein cereblon-NS3 (Hepacivirus hominis, UniProt A3EZJ3+Q96SW2); assay: PROTAC activity at CRBN/NS3 of HCV assessed as induction of NS3-eGFP-2A-mCherry degradation incubated for 4 hrs by flow cytometry
[7] = biological target: T2, Protein cereblon/Retinal rod rhodopsin-sensitive cGMP 3',5'-cyclic phosphodiesterase subunit delta (Homo sapiens, UniProt O43924+Q96SW2); assay: PROTAC activity at CRBN/PDEdelta in human PancTu-I assessed as induction of PDEdelta degradation incubated for 24 hrs by immunoblot analysis; assay type: cell-based
[8] = biological target: T2, Protein cereblon/Retinal rod rhodopsin-sensitive cGMP 3',5'-cyclic phosphodiesterase subunit delta; assay: PROTAC activity at CRBN/PDEdelta in human PancTu-I assessed as induction of PDEdelta degradation incubated for 24 hrs by immunoblot analysis relative to control; assay type: cell-based
[9] = biological target: von Hippel-Lindau disease tumor suppressor/Barrier-to-autointegration factor (Homo sapiens, UniProt O75531+P40337); assay: PROTAC activity at VHL/BAF in human MV4-11 cells assessed as induction of BAF degradation incubated for 18 hrs by Western blot analysis; assay type: cell-based
[10] = biological target: von Hippel-Lindau disease tumor suppressor/Barrier-to-autointegration factor (Homo sapiens) (UniProt P40337+O75531); assay: PROTAC activity at VHL/BAF in human MV4-11 cells assessed as induction of BAF degradation incubated for 18 hrs by Western blot analysis relative to control; assay type: cell-based
[11] = biological target: von Hippel-Lindau disease tumor suppressor/Cyclin-dependent kinase 6 (Homo sapiens, UniProt P40337+Q00534); assay: PROTAC activity at VHL/CDK6 in human MM1.S cells assessed as induction of CDK6 degradation incubated for 16 hrs by Western blot analysis; assay type: cell-based
von Hippel-Lindau disease tumor suppressor/Cyclin-dependent kinase 6, sequence (Q00534 whole entry): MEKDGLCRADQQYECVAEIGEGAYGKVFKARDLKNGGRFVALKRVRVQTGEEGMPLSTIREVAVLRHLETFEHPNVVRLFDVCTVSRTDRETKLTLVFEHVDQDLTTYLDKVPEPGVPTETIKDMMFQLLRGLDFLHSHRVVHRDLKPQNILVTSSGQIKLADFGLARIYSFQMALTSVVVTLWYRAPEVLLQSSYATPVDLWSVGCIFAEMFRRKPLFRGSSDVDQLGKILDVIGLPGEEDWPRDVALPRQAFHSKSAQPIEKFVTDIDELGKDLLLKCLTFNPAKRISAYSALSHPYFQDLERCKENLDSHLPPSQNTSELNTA
von Hippel-Lindau disease tumor suppressor/Cyclin-dependent kinase 6, sequence (P40337 whole entry): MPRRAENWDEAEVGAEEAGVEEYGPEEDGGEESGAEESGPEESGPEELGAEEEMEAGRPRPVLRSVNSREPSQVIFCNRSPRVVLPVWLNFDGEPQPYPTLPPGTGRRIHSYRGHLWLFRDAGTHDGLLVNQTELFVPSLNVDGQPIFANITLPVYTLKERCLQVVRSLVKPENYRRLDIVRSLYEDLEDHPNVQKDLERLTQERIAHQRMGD

[12] = biological target: von Hippel-Lindau disease tumor suppressor/Cyclin-dependent kinase 6 (Homo sapiens) (UniProt Q00534+P40337); assay: PROTAC activity at VHL/CDK6 in human MM1.S cells assessed as induction of CDK6 degradation at 0.1 to 1 uM incubated for 16 hrs by Western blot analysis relative to control; assay type: cell-based; conditions: dose 0.1-1 µM
[13] = biological target: von Hippel-Lindau disease tumor suppressor/Cyclin-dependent kinase 4 (Homo sapiens, UniProt P11802+P40337); assay: PROTAC activity at VHL/CDK4 in human MM1.S cells assessed as induction of […] degradation incubated for 16 hrs by Western blot analysis; assay type: cell-based
[14] = biological target: von Hippel-Lindau disease tumor suppressor/Focal adhesion kinase 1 (Homo sapiens, UniProt P40337+Q05397); assay: PROTAC activity at VHL/FAK in human PC-3 cells assessed as induction of FAK degradation incubated for 24 hrs by immunoblot analysis; assay type: cell-based
von Hippel-Lindau disease tumor suppressor/Focal adhesion kinase 1, sequence (Q05397 whole entry): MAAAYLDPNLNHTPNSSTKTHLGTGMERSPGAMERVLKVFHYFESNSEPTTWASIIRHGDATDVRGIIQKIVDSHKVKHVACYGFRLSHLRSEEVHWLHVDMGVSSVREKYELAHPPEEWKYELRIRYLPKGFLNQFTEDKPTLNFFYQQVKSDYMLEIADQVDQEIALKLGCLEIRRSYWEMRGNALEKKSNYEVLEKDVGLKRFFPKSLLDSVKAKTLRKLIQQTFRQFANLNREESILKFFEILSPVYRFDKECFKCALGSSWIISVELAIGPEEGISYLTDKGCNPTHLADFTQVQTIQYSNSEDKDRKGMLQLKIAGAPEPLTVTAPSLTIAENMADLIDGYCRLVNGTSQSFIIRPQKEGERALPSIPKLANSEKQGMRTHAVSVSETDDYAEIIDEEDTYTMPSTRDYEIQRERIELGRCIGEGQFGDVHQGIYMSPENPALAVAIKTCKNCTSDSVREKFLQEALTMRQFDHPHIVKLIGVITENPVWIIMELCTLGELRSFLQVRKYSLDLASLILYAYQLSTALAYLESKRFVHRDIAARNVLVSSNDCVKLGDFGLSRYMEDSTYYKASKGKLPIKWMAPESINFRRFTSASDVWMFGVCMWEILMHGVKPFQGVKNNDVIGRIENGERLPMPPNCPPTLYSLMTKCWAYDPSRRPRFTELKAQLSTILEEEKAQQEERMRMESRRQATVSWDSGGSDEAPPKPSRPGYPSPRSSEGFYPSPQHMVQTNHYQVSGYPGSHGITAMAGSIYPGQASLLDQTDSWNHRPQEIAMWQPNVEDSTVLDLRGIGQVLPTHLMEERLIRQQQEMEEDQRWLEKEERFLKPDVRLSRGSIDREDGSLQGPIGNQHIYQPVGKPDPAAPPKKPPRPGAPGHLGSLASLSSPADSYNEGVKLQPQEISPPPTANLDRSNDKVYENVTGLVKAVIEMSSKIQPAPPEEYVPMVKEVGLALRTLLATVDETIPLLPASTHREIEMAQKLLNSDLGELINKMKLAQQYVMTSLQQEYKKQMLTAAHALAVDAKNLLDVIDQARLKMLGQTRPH
von Hippel-Lindau disease tumor suppressor/Focal adhesion kinase 1, sequence (P40337 whole entry): as the sequence (P40337 whole entry) above

[15] = biological target: von Hippel-Lindau disease tumor suppressor/Focal adhesion kinase 1 (Homo sapiens) (UniProt Q05397+P40337); assay: PROTAC activity at VHL/FAK in human PC-3 cells assessed as induction of FAK degradation incubated for 24 hrs by immunoblot analysis relative to control; assay type: cell-based
[16] = biological target: Protein cereblon/Tyrosine-protein kinase BTK (Homo sapiens, UniProt Q06187+Q96SW2, C481S); assay: PROTAC activity at CRBN/BTK C481S mutant transfected in human HeLa cells assessed as induction of BTK C481S degradation incubated for 4 days by immunoblot analysis; assay type: cell-based
[17] = PROTAC activity at VHL/PRC2 in human HeLa cells assessed as induction of PRC2 degradation incubated for 24 hrs by Western blot analysis; assay type: cell-based
[18] = tested on: HeLa; assay: PROTAC activity at VHL/PRC2 in human HeLa cells assessed as induction of PRC2 degradation incubated for 24 hrs by Western blot analysis relative to control; assay type: cell-based

COc1cc2nc(N3CCN(C(=O)c4cn(CCOCCOCCOCC(=O)Nc5cccc6c5C(=O)N(C5CCC(=O)NC5=O)C6=O)nn4)CC3)nc(N)c2cc1OC (stereo not given)
pEC50 [1]: 5.54 | Emax [2]: 94% | pIC50 [3]: 5.21

CC(C)(/C=C(\C#N)C(=O)N1CCC[C@H](n2nc(-c3ccc(Oc4ccccc4)cc3)c3c(N)ncnc32)C1)CCCOCCOCCOCCOCCOc1cccc2c1C(=O)N(C1CCC(=O)NC1=O)C2=O (stereo not given in full)
pEC50 [4]: 8.00 | Emax [5]: 90%

CCC[C@H](NC(=O)[C@@H]1[C@H]2CCC[C@H]2CN1C(=O)[C@@H](NC(=O)[C@@H](NC(=O)c1cnc(C(=O)NCCCCCCNc2cccc3c2CN(C2CCC(=O)NC2=O)C3=O)cn1)C1CCCCC1)C(C)(C)C)C(=O)C(=O)NC1CC1 (stereo not given in full)
pEC50 [6]: 6.17

O=C1CCC(N2C(=O)c3cccc(NCCOCCOCCOCCOCCNC(=O)c4ccc(CN(CC5CCNCC5)S(=O)(=O)c5ccc(S(=O)(=O)N(Cc6ccc(Cl)cc6)C6CCCC6)cc5)cc4)c3C2=O)C(=O)N1 (stereo not given)
pEC50 [7]: 7.32 | Emax [8]: 85%

Cc1ncsc1-c1ccc(CNC(=O)[C@@H]2C[C@@H](O)CN2C(=O)[C@@H](NC(=O)C2(F)CC2)C(C)(C)C)c(OCCOc2ccc(CN3CCN(c4cc(-c5ccccc5O)nnc4N)CC3)cc2)c1
pEC50 [9]: > 7.49 | Emax [10]: > 65%

Nc1ncnc2c1c(-c1ccc(Oc3ccccc3)cc1)nn2[C@H]1CCCN(C(=O)CCCCCCOCCOCCOCCOCCOc2cccc3c2C(=O)N(C2CCC(=O)NC2=O)C3=O)C1 (stereo not given in full)
pEC50 [4]: 8.66 | Emax [5]: 97%

CC(=O)c1c(C)c2cnc(Nc3ccc(N4CCN(CCOCCOCCOc5cc(-c6scnc6C)ccc5CNC(=O)[C@H]5C[C@H](O)CN5C(=O)[C@@H](NC(=O)C5(F)CC5)C(C)(C)C)CC4)cn3)nc2n(C2CCCC2)c1=O
pEC50 [11]: 8.29 | Emax [12]: > 95% | pEC50 [13]: 7.70

Cc1ncsc1-c1ccc(CNC(=O)[C@@H]2C[C@@H](O)CN2C(=O)[C@@H](NC(=O)CCOCCOc2ccc(Nc3ncc(C(F)(F)F)c(NCc4cccc(N(C)S(C)(=O)=O)c4)n3)cc2)C(C)(C)C)cc1
pEC50 [14]: 8.52 | Emax [15]: 99%

Nc1ncnc2c1c(-c1ccc(Oc3ccccc3)cc1)nn2[C@@H]1CCCN(C(=O)c2cn(CCOCCOCCOCCNc3cccc4c3C(=O)N(C3CCC(=O)NC3=O)C4=O)nn2)C1 (stereo not given in full)
pEC50 [16]: 7.52

Cc1ncsc1-c1ccc(CNC(=O)[C@@H]2C[C@@H](O)CN2C(=O)[C@@H](NC(=O)CCCNC(=O)c2ccc(-c3cnc(NCc4ccco4)n4cnnc34)cc2)C(C)(C)C)cc1
pEC50 [17]: > 6.15 | Emax [18]: > 80%
